# Test results as given in patent publication US20230210834A1, “RNA METHYLTRANSFERASE INHIBITOR, SCREENING METHOD THEREFOR, ANTI-CANCER AGENT EFFICACY ASSESSMENT MARKER, AND KIT FOR EFFECTIVELY PREDICTING FTSJ1 INHIBITOR” (National University Corporation Okayama University, priority 2019, published 2023).
# Where two headings read alike, the source gives them in different places.
# Legend:
# [1] = tested on: triple-negative breast cancer cell line MDA-MB-231; test: Anti-tumor effect evaluation test in MDA-MB-231 tumor model mice; format: in vivo, immunodeficient mice (BALB/c-nu/nu); conditions: 100 mg/kg intraperitoneally every other day in corn oil; FIG. 1 and 2
# Protocol: A cell suspension (1×10^6 cells/100 μL), in which triple-negative breast cancer cell line MDA-MB-231 was suspended in phosphate buffer (PBS, produced by FUJIFILM Wako Pure Chemical Corporation), was inoculated subcutaneously in the dorsal lumbar region of immunodeficient mice (BALB/c-nu/nu, female, 6 weeks old, purchased from Shimizu Laboratory Supplies Co., Ltd.) using a syringe with a 23 G injection needle (Terumo Corporation). After confirming that the cancer cells engrafted under the skin of the mice to form tumor tissues, and that the tumor volume reached 100 mm^3, the obtained tumor model mice were used for the following evaluation test. First, each compound for evaluation was dissolved in corn oil (produced by Sigma-Aldrich Co., LLC) and administered intraperitoneally. PVZF0024 was administered at 100 mg/kg and PVZF2001 was administered at 20 mg/kg to the tumor model mice every other day. At each administration, the tumor diameter was measured with a caliper. The tumor volume was calculated according to the following formula: V=(3.14×D×d^2)/6 (wherein V is the tumor volume, D is the tumor major axis, and d is the tumor minor axis) (Wu. et al., Clin. Cancer Res., 2013 Oct. 15; 19(20): 5699-5710).
# [2] = tested on: polyglutamine luciferase reporter; test: Screening: polyglutamine luciferase reporter assay in NUGC3 cells (luminescence % of DMSO); format: cell-based, human
# [3] = tested on: YAP/TAZ; test: Screening: YAP/TAZ activity reporter (8xGTIIC plasmid) assay in NUGC3 cells (luminescence % of DMSO); format: cell-based, human
# [4] = NUGC3 cells, luminescence relative to DMSO, concentration not given
# [5] = polyglutamine luciferase reporter, NUGC3 cells, luminescence relative to DMSO, concentration not given
# [6] = YAP/TAZ activity reporter (8×GTIIC), NUGC3 cells, luminescence relative to DMSO, concentration not given
SMILES,"Polyglutamine [2, 5]","8×GTIIC [3, 6]",further results
Oc1ccccc1C1CC(c2ccc3c(c2)OCCO3)=NN1 (stereo not drawn) [PVZF0024],,,"antitumor effect (tumor growth, tumor volume) [1]: significantly inhibit tumor growth; Polyglutamine [2, 4]: 15.8%; 8×GTIIC [3, 4]: 23.4%"
O=S(=O)(CCc1ccccc1)c1ccc2ccccc2c1 [PVZF2014],40.32%,59.08%,
CCC(C)(C)c1ccc(S(=O)(=O)CCCC2=CCCCC2)cc1 [PVZF2044],45.42%,55.05%,
O=S(=O)(CCC1CCCCC1)c1ccccc1 [PVZF2051],38.06%,35.1%,
CS(=O)(=O)C1CCC(CS(=O)(=O)c2ccc3c(c2)CCCCC3)CC1 (stereo not drawn) [SA061],66.4%,96.27%,
O=S(=O)(CC1CCCCC1)c1ccc(-c2ccccc2)cc1 [PVZF2030],50.36%,49.29%,
Cc1ccc(C2=NC(S(C)(=O)=O)C(c3ccc(C)cc3)C2)cc1 (stereo not drawn) [PVZF0082],,,"Polyglutamine [2, 4]: 87.78%; 8×GTIIC [3, 4]: 172.9%"
CC(=O)C1CC(c2ccc(C)cc2)CC1c1ccc2ccccc2c1 (stereo not drawn) [PZ177],43.89%,71.59%,
Cc1cccc(C)c1S(=O)(=O)CC1CCC(C2CC2)CC1 (stereo not drawn) [SA036],71.57%,57.59%,
CCCC(=O)C1CCC(CS(=O)(=O)c2ccc3c(c2)CCC(=O)C3)CC1 (stereo not drawn) [SA022],102.2%,66.88%,
Cc1cc(C)cc(S(=O)(=O)CC2CCC(C3CC3)CC2)c1 (stereo not drawn) [SA032],80.29%,88.64%,
Cc1cc(C)c(S(=O)(=O)CC2CC(C)(C)CC(C)(C)C2)cc1C [SA002],49.58%,47.03%,
CCc1cccc(C2CC(c3ccccc3)=NC2S(=O)(=O)c2ccc(C)cc2)c1CC (stereo not drawn) [PVZF0068],,,"Polyglutamine [2, 4]: 39.33%; 8×GTIIC [3, 4]: 51.65%"
Cc1ccccc1S(=O)(=O)CC1CCC(C2CC2)CC1 (stereo not drawn) [SA034],77.96%,87.42%,
O=S(=O)(CC1CCCC1)c1ccc2ccccc2c1 [PVZF2010],33.13%,24.49%,
"O=S(=O)(NCCC1=CCCCC1)c1ccc(-c2ccccc2)cc1 [PVZF2035, N-(2-(cyclohexy-1-en-1-yl)ethyl)-[1,1′-biphenyl]-4-sulfonamide]",,,Polyglutamine [2]: 58.85%; 8×GTIIC [3]: 71.12%
CCCCCCS(=O)(=O)c1ccc(C(C)(C)C)cc1 [PVZF2020],36.76%,45.04%,

SMILES,"Polyglutamine [2, 5]","8×GTIIC [3, 6]",further results
Cc1ccc(C2=NC(S(C)(=O)=O)C(c3ccc(C(C)C)cc3)C2)cc1 (stereo not drawn) [PVZF0084],,,"Polyglutamine [2, 4]: 71.08%; 8×GTIIC [3, 4]: 146.9%"
CC(=O)c1ccccc1S(=O)(=O)CC1CCC(S(C)(=O)=O)CC1 (stereo not drawn) [SA074],92.5%,88.44%,
C=C(CCC)C1CCC(CS(=O)(=O)c2ccc(C)cc2C(C)(C)C)CC1 (stereo not drawn) [SA069],76.83%,67.61%,
CCc1ccc(C2=NC(S(=O)(=O)c3ccccc3)C(c3cccc(CC)c3CC)C2)c(CC)c1 (stereo not drawn) [PVZF0054],,,"Polyglutamine [2, 4]: 56.4%; 8×GTIIC [3, 4]: 49.48%"
Cc1cc(C)c(S(=O)(=O)CC2CC(C)(C)SC(C)(C)C2)cc1C [SA023],63.47%,87.74%,
"Cc1ccc(C)c(S(=O)(=O)C2CCC(CS(=O)(=O)c3ccccc3)CC2)c1 (single isomer, unassigned) [SA014]",72.95%,93.69%,
Cc1ccc(C(C)(C)C)cc1S(=O)(=O)C1CCC(NS(=O)(=O)c2ccccc2)CC1 (stereo not drawn) [SA019],55.62%,66.45%,
CCS(=O)(=O)C1CCC(CS(=O)(=O)c2ccc(C)cc2C)CC1 (stereo not drawn) [SA075],110.7%,95.02%,
CCc1cccc(C2CC(c3ccccc3)=NC2S(=O)(=O)c2ccccc2C)c1CC (stereo not drawn) [PVZF0050],,,"Polyglutamine [2, 4]: 58.65%; 8×GTIIC [3, 4]: 106.2%"
CC1(C)CC(CS(=O)(=O)c2ccc(-c3ccccc3)cc2)CC(C)(C)C1 [PVZF2036],79.76%,70.46%,
O=S(=O)(CC1CCC(S(=O)(=O)c2cccs2)CC1)c1ccc2c(c1)CCCC2 (stereo not drawn) [SA047],47.4%,56.12%,
O=S(=O)(CCCC1CCCCC1)c1ccc2ccccc2c1 [PVZF2017],66.66%,58.91%,
CC1CC(C)CC(S(=O)(=O)C2CCC(CS(=O)(=O)c3ccccc3)CC2)C1 (stereo not drawn) [SA090],84.73%,64.02%,
CC(C)c1cc(C(C)C)c(S(=O)(=O)CC(c2ccccc2)c2ccc(-c3ccccc3)cc2)c(C(C)C)c1 (stereo not drawn) [PVZF2083],69%,108.4%,
O=S(=O)(CC1CCC(C2CC2)CC1)c1ccc2c(c1)CCC2 (stereo not drawn) [SA091],88.36%,101.3%,
CCc1ccccc1C1CC(c2ccc(C)cc2)=NC1S(=O)(=O)c1ccccc1 (stereo not drawn) [PVZF0063],,,"Polyglutamine [2, 4]: 43.6%; 8×GTIIC [3, 4]: 56.3%"
CC(C)(C)c1ccccc1S(=O)(=O)CC1CCC(C2CC2)CC1 (stereo not drawn) [SA087],78.43%,59.57%,
